According to US20150105252A1, “SUBSTITUTED PYRAZOLES AS HERBICIDES” (E I DU PONT DE NEMOURS AND COMPANY, priority 2013, published 2015):

Legend:
goosegrass = experiment: Test C postemergence; format: in vivo, Eleusine indica; conditions: for Goosegrass plant response rating: scale 0 to 100
Description: (§1) Seeds of plant species selected from blackgrass (Alopecurus myosuroides), ryegrass, Italian (Italian ryegrass, Lolium multiflorum), wheat (winter wheat, Triticum aestivum), galium (catchweed bedstraw, Galium aparine), corn (Zea mays), crabgrass, large (large crabgrass, Digitaria sanguinalis), foxtail, giant (giant foxtail, Setaria faberii), johnsongrass (Sorghum halepense), lambsquarters (Chenopodium album), morningglory (Ipomoea coccinea), nutsedge, yellow (yellow nutsedge, Cyperus esculentus), pigweed (redroot pigweed, Amaranthus retroflexus), ragweed (common ragweed, Ambrosia elation), soybean (Glycine max), barnyardgrass (Echinochloa crus-galli), oilseed rape (Brassica napus), waterhemp (common waterhemp, Amaranthus rudis), oat, wild (wild oat, Avena fatua), kochia (Kochia scoparia), Surinam grass (Brachiaria decumbens), foxtail, green (green foxtail, Setaria viridis), goosegrass (Eleusine indica), bromegrass, downy (downy bromegrass, Bromus tectorum), nightshade (eastern black nightshade, Solanum ptycanthum), cocklebur (common cocklebur, Xanthium strumarium), cupgrass, woolly (woolly cupgrass, Eriochloa villosa), bermudagrass (Cynodon dactylon), sunflower, (common oilseed sunflower, Helianthus annuus), Russian thistle (Salsola kali), and velvetleaf (Abutilon theophrasti) were planted into a blend of loam soil and sand and treated preemergence with test chemicals formulated in a non-phytotoxic solvent mixture which included a surfactant.
(§2) At the same time, plants selected from these crop and weed species and also chickweed (common chickweed, Stellaria media), canarygrass (littleseed canarygrass, Phalaris minor), and deadnettle (henbit deadnettle, Lamium amplexicaule), were planted in pots containing Redi-Earth® planting medium (Scotts Company, 14111 Scottslawn Road, Marysville, Ohio 43041) comprising spaghnum peat moss, vermiculite, wetting agent and starter nutrients and treated with postemergence applications of test chemicals formulated in the same manner. Plants ranged in height from 2 to 18 cm (1- to 4-leaf stage) for postemergence treatments. Treated plants and controls were maintained in a greenhouse for 13 to 15 days, after which time all species were compared to controls and visually evaluated. Plant response ratings, summarized in Table C, are based on a scale of 0 to 100 where 0 is no effect and 100 is complete control. A dash (-) response means no test result.

barley = experiment: Test C postemergence; format: in vivo, Hordeum vulgare
windgrass = experiment: Test C postemergence; format: in vivo, Apera spica-venti; conditions: 125 g ai/ha, scale 0 to 100, 0 no effect, 100 complete control
sunflower = experiment: Test C preemergence; format: in vivo, Helianthus annuus; conditions: for Plant response rating (scale of 0 to 100), Sunflower: Preemergence, 250 g ai/ha; for Sunflower plant response rating / Plant response rating, Sunflower: preemergence; for Plant response rating, Sunflower: 62 g ai/ha, scale 0 to 100, 0 = no effect, 100 = complete control
Description: as §1, §2

lambsquarters = experiment: Test F preemergence; format: in vivo, Chenopodium album
Description: (§3) Seeds of plant species selected from corn (Zea mays), soybean (Glycine max), velvetleaf (Abutilon theophrasti), lambsquarters (Chenopodium album), wild poinsettia (Euphorbia heterophylla), pigweed, palmer (palmer pigweed, Amaranthus palmeri), common waterhemp (Amaranthus rudis), surinam grass (Brachiaria decumbens), large crabgrass (Digitaria sanguinalis), crabgrass, Brazil (Brazilian crabgrass, Digitaria horizontalis), fall panicum (Panicum dichotomiflorum), giant foxtail (Setaria faberii), green foxtail (Setaria viridis), goosegrass (Eleusine indica), johnsongrass (Sorghum halepense), common ragweed (Ambrosia elation), barnyardgrass (Echinochloa crus-galli), southern sandbur (Cenchrus echinatus), arrowleaf sida (Sida rhombifolia), Italian ryegrass (Lolium multiflorum), dayflower, VA (Virginia (VA) dayflower, Commelina virginica), field bindweed (Convolvulus arvensis), cocklebur (common cocklebur, Xanthium strumarium), morningglory (Ipomoea coccinea), nightshade (eastern black nightshade, Solanum ptycanthum), kochia (Kochia scoparia), yellow nutsedge (Cyperus esculentus), and hairy beggarticks (Bidens pilosa), were planted into a silt loam soil and treated preemergence with test chemicals formulated in a non-phytotoxic solvent mixture which included a surfactant.
(§4) At the same time, plants from these crop and weed species and also horseweed (Canada horseweed, Conyza canadensis), smartweed (ladysthumb smartweed, Polygonum persicaria), waterhemp_RES1, (ALS & Triazine resistant common waterhemp, Amaranthus rudis), and waterhemp_RES2, (ALS & HPPD resistant common waterhemp, Amaranthus rudis) were treated with postemergence applications of test chemicals formulated in the same manner. Plants ranged in height from 2 to 18 cm for postemergence treatments (1- to 4-leaf stage). Treated plants and controls were maintained in a greenhouse for 14 to 21 days, after which time all species were compared to controls and visually evaluated. Plant response ratings, summarized in Table F, are based on a scale of 0 to 100 where 0 is no effect and 100 is complete control. A dash (-) response means no test result.

large crabgrass = experiment: Test F preemergence; format: in vivo, Digitaria sanguinalis
Description: as §3, §4

southern sandbur = experiment: Test F preemergence; format: in vivo, Cenchrus echinatus
Description: as §3, §4

dayflower, VA = experiment: Test F preemergence; format: in vivo, Commelina virginica
Description: as §3, §4

kochia = experiment: Test A postemergence; format: in vivo, Kochia scoparia
How it was run: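 After sowing in a sand–loam mix, pots received compound preemergence by directed soil spray, or postemergence once plants reached the one- to two-leaf stage (2–10 cm). Formulation contained surfactant in a non-phytotoxic solvent. Injury was scored visually after ~10 greenhouse days, 0–100 scale.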

[1] = postemergence, 250 g ai/ha, scale 0 to 100 (0 no effect, 100 complete control)
[2] = postemergence, 62 g ai/ha, scale 0 to 100, 0 no effect, 100 complete control
[3] = postemergence, 125 g ai/ha, scale 0 to 100, 0 no effect, 100 complete control
[4] = 125 g ai/ha, scale 0 to 100, 0 no effect, 100 complete control
[5] = 250 g ai/ha, scale 0 to 100 (0 no effect, 100 complete control)
[6] = 31 g ai/ha, scale 0 to 100 (0 no effect, 100 complete control), 13 to 15 days
[7] = 125 g ai/ha, scale 0 to 100, 0 is no effect, 100 is complete control
[8] = Preemergence, 31 g ai/ha, scale 0 to 100
[9] = Preemergence, 62 g ai/ha, scale 0 to 100
[10] = Preemergence, 125 g ai/ha, scale 0 to 100
[11] = preemergence, 8 g ai/ha, scale 0 to 100, 100 is complete control
[12] = preemergence, 16 g ai/ha, scale 0 to 100, 100 is complete control
[13] = Postemergence, 500 g ai/ha, 0 to 100 scale (0 no effect, 100 complete control)
[14] = postemergence, 125 g ai/ha, about 10 days, visual rating on 0 to 100 scale (0 no effect, 100 complete control)
[15] = Preemergence, 250 g ai/ha, scale 0 to 100

## CCc1cc(C(=O)NCC(F)(F)F)nn1Cc1cccc(OC(F)(F)F)c1 [Compound 20]
goosegrass; Postemergence, 31 g ai/ha
  Goosegrass plant response rating: 0
goosegrass; [1]
  Plant response rating, Goosegrass: 15
goosegrass; [2]
  Plant response rating, Goosegrass: 5
goosegrass; [3]
  Plant response rating, Goosegrass: 5
barley; [4]
  Plant response rating, Barley: 30
barley; [5]
  Plant response rating, Barley: 30
windgrass
  Plant response rating, Windgrass: 40

## CCCNC(=O)c1cc(CC)n(Cc2cccc(OC(F)(F)F)c2)n1 [Compound 27]
goosegrass; Postemergence, 31 g ai/ha
  Goosegrass plant response rating: 0
goosegrass; [1]
  Plant response rating, Goosegrass: 10
goosegrass; [2]
  Plant response rating, Goosegrass: 0
goosegrass; [3]
  Plant response rating, Goosegrass: 0
barley; [4]
  Plant response rating, Barley: 20
barley; [5]
  Plant response rating, Barley: 30
windgrass
  Plant response rating, Windgrass: 40

## CCc1cc(C(=O)NOC(C)C)nn1Cc1cccc(OC(F)(F)F)c1 [Compound 70]
sunflower
  Plant response rating (scale of 0 to 100), Sunflower: 5
sunflower; [6]
  Sunflower plant response rating: 0
sunflower; 13 to 15 days
  Plant response rating, Sunflower: 0
sunflower; [7]
  Sunflower plant response rating: 5
goosegrass; Postemergence, 31 g ai/ha
  Goosegrass plant response rating: 5
goosegrass; [1]
  Plant response rating, Goosegrass: 15
goosegrass; [2]
  Plant response rating, Goosegrass: 5
goosegrass; [3]
  Plant response rating, Goosegrass: 10
barley; [5]
  Plant response rating, Barley: 25
windgrass
  Plant response rating, Windgrass: 50

## CCONC(=O)c1cc(CC)n(Cc2cccc(OC(F)(F)F)c2)n1 [Compound 72]
sunflower
  Plant response rating (scale of 0 to 100), Sunflower: 20
sunflower; [6]
  Sunflower plant response rating: 0
sunflower; 13 to 15 days
  Plant response rating, Sunflower: 0
sunflower; [7]
  Sunflower plant response rating: 5
goosegrass; Postemergence, 31 g ai/ha
  Goosegrass plant response rating: 0
goosegrass; postemergence, 62 g ai/ha
  Goosegrass plant response rating: 0
goosegrass; [1]
  Plant response rating, Goosegrass: 5
goosegrass; [3]
  Plant response rating, Goosegrass: 0
barley; [5]
  Plant response rating, Barley: 10
windgrass
  Plant response rating, Windgrass: 25

## Cc1cc(C(=O)NCC(F)(F)F)nn1Cc1ccnc(C(F)(F)F)c1 [Compound 74]
sunflower
  Plant response rating (scale of 0 to 100), Sunflower: 95
sunflower; [6]
  Sunflower plant response rating: 10
sunflower; 13 to 15 days
  Plant response rating, Sunflower: 40
sunflower; [7]
  Sunflower plant response rating: 75
goosegrass; Postemergence, 31 g ai/ha
  Goosegrass plant response rating: 5
goosegrass; postemergence, 62 g ai/ha
  Goosegrass plant response rating: 5
goosegrass; [1]
  Plant response rating, Goosegrass: 10
goosegrass; [3]
  Plant response rating, Goosegrass: 5
barley; [5]
  Plant response rating, Barley: 5
windgrass
  Plant response rating, Windgrass: 0

## CCc1cc(-c2ccc(C(F)(F)F)cc2)nn1Cc1ccnc(C(F)(F)F)c1 [Compound 110]
lambsquarters; [8]
  Plant response rating, Lambsquarters: 65
lambsquarters; [9]
  Plant response rating, Lambsquarters: 50
lambsquarters; [10]
  Plant response rating, Lambsquarters: 100
lambsquarters; [11]
  Plant response rating, Lambsquarters: 0
lambsquarters; [12]
  Plant response rating, Lambsquarters: 0
Large crabgrass; [8]
  Plant response rating, Large Crabgrass: 10
Large crabgrass; [9]
  Plant response rating, Large Crabgrass: 75
Large crabgrass; [10]
  Plant response rating, Large Crabgrass: 85
Large crabgrass; [11]
  Plant response rating, Large Crabgrass: 5
Large crabgrass; [12]
  Plant response rating, Large Crabgrass: 5
Southern sandbur; [8]
  Plant response rating, Southern Sandbur: 20
Southern sandbur; [9]
  Plant response rating, Southern Sandbur: 35
Southern sandbur; [10]
  Plant response rating, Southern Sandbur: 75
Southern sandbur; [11]
  Plant response rating, Southern Sandbur: 0
Southern sandbur; [12]
  Plant response rating, Southern Sandbur: 20
dayflower, VA; [8]
  Plant response rating, Dayflower, VA: 5
dayflower, VA; [9]
  Plant response rating, Dayflower, VA: 10
dayflower, VA; [10]
  Plant response rating, Dayflower, VA: 65
dayflower, VA; [11]
  Plant response rating, Dayflower, VA: 0
dayflower, VA; [12]
  Plant response rating, Dayflower, VA: 0

## CCc1cc(C(=O)NOC(C)C)nn1Cc1ccnc(OC(F)F)c1 [Compound 126]
kochia; [13]
  Kochia plant response rating: 100
kochia; [14]
  Kochia plant response rating: 100

## CCCc1cc(C(=O)NCC(F)(F)F)nn1Cc1ccnc(OC(F)F)c1 [Compound 127]
kochia; [13]
  Kochia plant response rating: 100
kochia; [14]
  Kochia plant response rating: 90

## CCOc1cc(C(=O)NCC(F)(F)F)nn1Cc1ccnc(OC(F)F)c1 [Compound 128]
kochia; [13]
  Kochia plant response rating: 90
kochia; [14]
  Kochia plant response rating: 90

## CCCNC(=O)c1cc(OCC)n(Cc2ccnc(OC(F)F)c2)n1 [Compound 136]
kochia; [13]
  Kochia plant response rating: 90
kochia; [14]
  Kochia plant response rating: 90

## CCCc1cc(C(=O)NC(C)C)nn1Cc1cc(C(F)(F)F)nn1C [Compound 201]
lambsquarters; [9]
  Plant response rating, Lambsquarters: 70
lambsquarters; [10]
  Plant response rating, Lambsquarters: 100
lambsquarters; [15]
  Plant response rating, Lambsquarters: 100
lambsquarters; [12]
  Plant response rating, Lambsquarters: 0
Large crabgrass; [9]
  Plant response rating, Large Crabgrass: 70
Large crabgrass; [10]
  Plant response rating, Large Crabgrass: 100
Large crabgrass; [15]
  Plant response rating, Large Crabgrass: 100
Large crabgrass; [12]
  Plant response rating, Large Crabgrass: 0
Large crabgrass; preemergence, scale 0 to 100, 100 is complete control
  Plant response rating, Large Crabgrass: 35
Southern sandbur; [9]
  Plant response rating, Southern Sandbur: 0
Southern sandbur; [10]
  Plant response rating, Southern Sandbur: 30
Southern sandbur; [15]
  Plant response rating, Southern Sandbur: 75
Southern sandbur; [12]
  Plant response rating, Southern Sandbur: 0
dayflower, VA; [9]
  Plant response rating, Dayflower, VA: 0
dayflower, VA; [10]
  Plant response rating, Dayflower, VA: 35
dayflower, VA; [15]
  Plant response rating, Dayflower, VA: 65
dayflower, VA; [12]
  Plant response rating, Dayflower, VA: 0

## CCCc1cc(C(=O)NC2CC2)nn1Cc1ccnc(OC(F)F)c1 [Compound 205]
kochia; Postemergence, 125 g ai/ha, 0 to 100 scale, 0 no effect, 100 complete control
  Kochia plant response rating: 90
kochia; [13]
  Kochia plant response rating: 90

## CCc1cc(C(=O)NCC(F)(F)F)nn1Cc1ccnc(Br)c1 [Compound 224]
lambsquarters; [9]
  Plant response rating, Lambsquarters: 98
lambsquarters; [10]
  Plant response rating, Lambsquarters: 98
lambsquarters; [15]
  Plant response rating, Lambsquarters: 100
Large crabgrass; [9]
  Plant response rating, Large Crabgrass: 98
Large crabgrass; [10]
  Plant response rating, Large Crabgrass: 100
Large crabgrass; [15]
  Plant response rating, Large Crabgrass: 100
Southern sandbur; [9]
  Plant response rating, Southern Sandbur: 5
Southern sandbur; [10]
  Plant response rating, Southern Sandbur: 35
Southern sandbur; [15]
  Plant response rating, Southern Sandbur: 15
dayflower, VA; [9]
  Plant response rating, Dayflower, VA: 0
dayflower, VA; [10]
  Plant response rating, Dayflower, VA: 40
dayflower, VA; [15]
  Plant response rating, Dayflower, VA: 85
